Values after ≈ are worked out from the molar mass of the structure shown. Read-outs that look alike come from different tables or passages of the source.
What was measured:
HSV-1 (E377) = experiment: CPE-inhibition assay against HSV-1 in Vero cell monolayers; type: cell-based, herpes simplex virus, Type 1; conditions: for EC50: read-out: MIC50; for VR: Virus Rating, VR 1.0 or greater significant, 0.5-0.9 marginal, less than 0.5 inactive; for TI: therapeutic index, MTC divided by MIC50, HSV-1 (E377)
Description: (§1) 2'-Deoxy-4'-thioribonucleosides were tested for antiviral activity against viruses that replicate in mammalian cells growing in cell culture. The Virus Rating (VR) is a standard weighted measurement of antiviral activity which takes into account the degree of inhibition of virus-induced cytopathogenic effects (CPE) and the degree of cytotoxicity produced by the test compound, determined by a modification of the method of Ehrlich et al, Ann. N.Y. Acad. Sci. 130, 5-16 (1965) .
(§2) The CPE-inhibition assays were designed to test seven 0.5 log10 concentrations of each compound, beginning with 320 µg/mL, against HSV in triplicate 24-hour Vero cell monolayers in 96-well tissue culture plates. To each of the replicate cell cultures were dispensed 0.1 mL of the test compound solution (or suspension) and 0.1 mL of HSV suspension (diluted in medium to yield 32 CCID50 units per 0.1 mL). Cell controls, untreated virus-infected controls and drug cytotoxicity controls were included in each assay. […] The cell monolayers were examined microscopically for drug cytotoxicity and for CPE. which was graded on a scale of 0-4 (0-100% CPE).
(§3) The VR was calculated as 0.1 of the sum of the numerical differences between the recorded CPE grade of each test well and that of the corresponding virus control in the culture plate. Numerical differences between the scores of test wells containing a drug concentration which is partially cytotoxic and their corresponding virus controls were halved.
(§4) In tests carried out by this method, a greater value of VR indicates greater antiviral activity.
(§5) The MIC50 (minimum inhibitory concentration, 50%) is the concentration of a test compound required for 50% inhibition of virus-induced cytopathogenic effect calculated by using a regression analysis program for semilog curve fitting. MTC (minimum toxic concentration) is the minimum drug concentration (µg/ml) causing any cytotoxicity. TI is the therapeutic index, calculated by dividing the minimum cytotoxic drug concentration (MTC) by the minimum inhibitory concentration, 50% (MIC50). […]

HSV-2 (MS) = experiment: CPE-inhibition assay against HSV-2 in Vero cell monolayers; type: cell-based, herpes simplex virus, Type 2; conditions: for EC50: read-out: MIC50; for VR: Virus Rating, VR 1.0 or greater significant, 0.5-0.9 marginal, less than 0.5 inactive
Description: as §1, §2, §3, §4, §5

in vitro = type: cell-based; conditions: monkey, vero cells
Description: (§6) The CPE-inhibition assays were designed to test seven 0.5 log10 concentrations of each compound, beginning with 320 µg/mL, against HSV in triplicate 24-hour Vero cell monolayers in 96-well tissue culture plates. […] Cell controls, untreated virus-infected controls and drug cytotoxicity controls were included in each assay. […] The cell monolayers were examined microscopically for drug cytotoxicity and for CPE. which was graded on a scale of 0-4 (0-100% CPE). The MIC50 (minimum inhibitory concentration, 50%) is the concentration of a test compound required for 50% inhibition of virus-induced cytopathogenic effect calculated by using a regression analysis program for semilog curve fitting. MTC (minimum toxic concentration) is the minimum drug concentration (µg/ml) causing any cytotoxicity. TI is the therapeutic index, calculated by dividing the minimum cytotoxic drug concentration (MTC) by the minimum inhibitory concentration, 50% (MIC50). […]

[1] = tested on: leukemia L1210 ("L1210") cells; experiment: Cytotoxicity test, cellular proliferation of L1210 cells in suspension culture; type: cell-based; conditions: Mus musculus, concentration decreasing cellular proliferation by 50%, 48 hour values
Description: (§7) 2'-Deoxy-4'-thioribonucleosides were tested for antitumor activity against leukemia L1210 ("L1210") cells and human epidermoid carcinoma No. 2 ("H.Ep.-2") cells.
(§8) For L1210 cells the IC50 is the concentration required to decrease cellular proliferation by 50% as compared to untreated controls. The cells were grown in suspension cultures and the number of cells present was determined at 24 and 48 hours.
(§9) In the cytotoxicity tests, the lower the IC50 value, the greater the antitumor activity. […]

[2] = tested on: human epidermoid carcinoma No. 2 ("H.Ep.-2") cells; experiment: Cytotoxicity test, colony formation of H.Ep.-2 cells; type: cell-based; conditions: HEp-2, 240 h, concentration reducing colony formation by 50%, 10 days incubation
Description: as §7
(§10) For H.Ep.-2 cells, the IC50 is the concentration required to reduce colony formation by 50% as compared to controls. One hundred cells in 10 mL of medium were placed in prescription bottles, and after 10 days incubation, the medium was decanted and the colonies were stained and counted.
as §9

Vero cell monolayers = experiment: in vitro; type: cell-based; conditions: monkey, vero cells
Description: as §6

[3] = tested on: either H.Ep.-2 or L1210 cells, or both; experiment: Cytotoxicity tests, summary statements that do not fix the cell line; type: cell-based; conditions: text statement on Table 2, cell line not fixed
Description: as §7, §8, §10, §9

[4] = Human alphaherpesvirus 1, 50% inhibition of virus-induced cytopathogenic effect, HSV-1 (E377), Vero cells, unit not given for MIC50 (MTC in µg/ml, TI = MTC/MIC50)

Row | Compound | EC50 (HSV-1 (E377); Human alphaherpesvirus 1, Vero) [µg/mL] | VR (HSV-1 (E377); HSV-1 (E377), Vero cells) | TI (HSV-1 (E377)) | EC50 (HSV-2 (MS); Human alphaherpesvirus 2, Vero) [µg/mL] | VR (HSV-2 (MS); HSV-2 (MS), Vero cells) | TI (HSV-2 (MS); therapeutic index, MTC divided by MIC50, HSV-2 (MS)) | MCC (in vitro) [µg/mL] | IC50 [1] [µg/mL] | EC50 (HSV-1 (E377); [4]) [µg/mL] | antiviral activity against herpes simplex Type 1 (HSV-1 (E377); statement in words on the tests of Table 1) | IC50 [2] [µg/mL] | MIC (Vero cell monolayers) | EC50 (HSV-2 (MS); Human alphaherpesvirus 2, 50% inhibition of virus-induced cytopathogenic effect, HSV-2 (MS), Vero cells, unit not given for MIC50 (MTC in µg/ml, TI = MTC/MIC50)) [µg/mL] | IC50 [3] [µg/mL]
1 | Nc1ncnc2c1ncn2[C@@H]1O[C@H](CO)[C@@H](O)[C@@H]1O [Ara-A, 9-β-D-arabinofuranosyladenine, reference compound] | 15.2 (≈ 56.9 µM) | 1.8 | 5.6 | 39.3 (≈ 147 µM) | 1.1 | 2.2 | 84.8 |  |  |  |  |  |  | 
2 | Cc1cn([C@@H]2C[C@H](O)[C@@H](CO)S2)c(=O)[nH]c1=O [1-(2-Deoxy-4-thio-α-D-ribofuranosyl)-thymine] |  | 1.4 | 2.3 - |  | 0.3 |  | > 257 | 20 (≈ 77.4 µM) | 100 (≈ 388 µM) | definite antiviral activity | 2.7 (≈ 10.5 µM) | >257.2 >257.2 µg/ml |  | 
3 | Nc1nc2c(ncn2COCCO)c(=O)[nH]1 [Acyclovir, reference compound] |  | 6.7 | > 441 |  | 4.8 |  | > 225 |  | 0.5 (≈ 2.22 µM) |  |  | >225.2 >225.2 µg/ml | 3.6 (≈ 16 µM) | 
4 | Cc1cn([C@H]2C[C@H](O)[C@@H](CO)S2)c(=O)[nH]c1=O [1-(2'-Deoxy-4'-thio-β-D-ribofuranosyl)thymine] |  | 1.3 | 3.2 - |  | 0.1 |  | 2.6 | 0.025 (≈ 0.0968 µM) | 0.8 (≈ 3.1 µM) |  | 0.075 (≈ 0.29 µM) |  |  | < 1
